# What was measured:
# SJSA-1 cells = test: Cell lysis by peptidomimetic macrocycles (LDH release); type: cell-based, human
# Description: SJSA-1 cells were plated out one day in advance in clear, flat-bottom plates at a density of 7500 cells/well with 100 μL/well of growth media. Row H columns 10-12 were left empty to be treated with media alone. On the day of the assay, the media was exchanged with RPMI 1% FBS media to result in 90 μL of media per well. 10 mM stock solutions of the peptidomimetic macrocycles were prepared in 100% DMSO. The peptidomimetic macrocycles were diluted serially in 100% DMSO, and further diluted 20-fold in sterile water to prepare working stock solutions in 5% DMSO/water. The concentrations of the peptidomimetic macrocycles ranged from 500 μM to 62.5 μM.
# 10 μL of each compound solution was added to the 90 μL of SJSA-1 cells to yield final concentration of 50 μM to 6.25 μM in 0.5% DMSO-containing media. The negative control (non-lytic sample) was 0.5% of DMSO alone. The positive control (lytic) samples included 10 μM of Melittin and 1% Triton X-100. The cell plates were incubated for 1 h at 37° C. After incubation for 1 h, the morphology of the cells was examined by microscope. The plates were then centrifuged at 1200 rpm for 5 min at room temperature. 40 μL of the supernatant for each peptidomimetic macrocycle and control sample was transferred to clear assay plates. LDH release was measured using an LDH cytotoxicity assay kit.
# Caspase 3 = Caspase 3 detection assay in SJSA-1 cells; type: cell-based, human; settings: SJSA-1 cells, 48 h, Caspase 3 activation over DMSO-treated cells
# Description: One the day of the assay, the media was replaced with fresh RPMI-11% FBS assay media. […] Control wells contained no cells, and received 200 μL of the assay media.
# The solutions were serially diluted 33.3 times using sterile water to provide a range of 10× working stock solutions. […] 20 μL of the 10× working stock solutions were added to the appropriate wells. Row H of the plates had control wells. Wells H1-H3 received 20 μL of the assay media. […] Wells H10-H12 received media and had no cells. […] Nutlin-3a was diluted using the same dilution scheme as the peptides.
# 10 μL of the 10× stock solutions were added to the appropriate wells to achieve the final concentrations in a total volume of 100 μL. […] 48 h after incubation, 80 μL of the media was aspirated from each well. 100 μL of Caspase 3/7Glo assay reagent was added to each well. […] Data were analyzed as Caspase 3 activation over DMSO-treated cells.
# [1] = tested on: SJSA1 osteosarcoma cancer cells; test: cells; settings: Homo sapiens, SJSA-1, 120 h, read-out: IC50, cellular proliferation
# [2] = Pharmacokinetics of AP1 and palbociclib in non-tumor-bearing nu/nu mice; settings: nu/nu, mouse, plasma, po, 75 mg/kg, nu/nu mice; for AUC(0-t): AUClast
# MCF7 cells = type: cell-based, human; settings: Homo sapiens
# [3] = Alone, AP1 20 mg/kg or palbociclib 75 mg/kg alone
# [4] = Co-administered, AP1 20 mg/kg with palbociclib 75 mg/kg
smiles,measurement,setting,value
"CSCC[C@H](NC(=O)[C@H](C)NC(=O)[C@H](C)NC(=O)[C@]1(C)CCCC=CCCCCCC[C@@](C)(NC(=O)[C@H](Cc2ccccc2)NC(=O)[C@@H](NC(=O)[C@H](CC(C)C)NC(C)=O)[C@@H](C)O)C(=O)N[C@@H](C)C(=O)N[C@@H](Cc2ccc(O)cc2)C(=O)N[C@@H](Cc2c[nH]c3ccccc23)C(=O)N[C@@H](C)C(=O)N[C@@H](C)C(=O)N[C@@H](CC(C)C)C(=O)N1)C(=O)N[C@H](C)C(N)=O (single isomer, unassigned) [compound 72]",6.25 μM % Lysed cells (1 h LDH),SJSA-1 cells; 6.25 μM,2%
same,25 μM % Lysed cells (1 h LDH),SJSA-1 cells; 25 μM,0%
same,50 μM % Lysed cells (1 h LDH),SJSA-1 cells; 50 μM,3%
same,caspase 0.3 μM,Caspase 3; 0.3 μM,1
same,caspase 3 μM,Caspase 3; 3 μM,1
same,caspase 10 μM,Caspase 3; 10 μM,4
same,caspase 30 μM,Caspase 3; 30 μM,10
CC(=O)c1c(C)c2cnc(Nc3ccc(N4CCNCC4)cn3)nc2n(C2CCCC2)c1=O [palbociclib],IC50,[1],60 nM
same,AUC(0-t),[2]; [3],37000 ng·h/mL
same,AUC(0-t),[2]; [4],29000 ng·h/mL
same,Cmax,[2]; [3],2900 ng/mL
same,Cmax,[2]; [4],2600 ng/mL
same,inhibition at 0.0003 µM,MCF7 cells,-10%
same,inhibition at 0.001 µM,MCF7 cells,-19%
same,inhibition at 0.003 µM,MCF7 cells,-9.7%
same,inhibition at 0.01 µM,MCF7 cells,6.6%
same,inhibition at 0.03 µM,MCF7 cells,21.1%
same,inhibition at 0.1 µM,MCF7 cells,40.9%
same,inhibition at 0.3 µM,MCF7 cells,62.9%
same,inhibition at 1 µM,MCF7 cells,78.9%
same,inhibition at 3 µM,MCF7 cells,84%
same,inhibition at 10 µM,MCF7 cells,84.3%
same,inhibition at 30 µM,MCF7 cells,100%

# Source: patent US11091522B2, “Peptidomimetic macrocycles and uses thereof” (priority 2018, dated 2021)
